Patent US4146622A, “Aziridinyl quinone anti-transplanted tumor agents” (priority 1977, dated 1979)
Values after ≈ are worked out from the molar mass of the structure shown. Values joined by “and” are separate entries in the source; they are usually repeats but may differ in a detail not shown here. Identical values can stand only once. “Also recorded” adds a separate entry of the source. Like-named read-outs stand apart in the source and are kept apart here.

Key:
lymphoid leukemia L1210 [1] = assay: Intraperitoneal (IP) lymphoid leukemia L1210 transplanted mouse tumor test; type: in vivo, murine; settings: for ILS (increase in life span) / T - C (average weight change of test group minus control): Table II; for T - C (average weight change of test group minus control): day 5
From the text: ^(a) Day 1-9 treatment schedule (9 injections)
^(b) Day 1,5,9 treatment schedule (3 injections)
^(c) Day 1 only treatment schedule (1 injection)
^(f) Percentage increase in life span of treated animals [(treated
survival .div. control survival) × 100%] - 100%

[2] = test system: P388 lymphocytic leukemia; assay: Intraperitoneal (IP) lymphocytic leukemia P388 transplanted mouse tumor test; type: in vivo, murine
B16 melanocarcinoma = assay: Intraperitoneal B16 melanocarcinoma transplanted mouse tumor test; type: in vivo, murine; settings: for ILS (increase in life span): Table II
Lewis lung carcinoma = assay: Lewis lung carcinoma, subcutaneous tumor implantation; type: in vivo, murine
From the text: ^c Subcutaneous tumor implantation, ip QD5-15 treatment schedule.
The L1210, P388 and B16 test systems described in Table II utilize intraperitoneal (IP) tumor implantation and IP drug treatment while the Lewis lung system employs subcutaneous tumor implantation and IP treatment.

lymphoid leukemia L1210 [3] = assay: Intracerebral (IC) lymphoid leukemia L1210 test; type: in vivo, murine; settings: for ILS (increase in life span): Table III
[4] = test system: P388 lymphocytic leukemia; assay: Intracerebral (IC) lymphocytic leukemia P388 test; type: in vivo, murine; settings: for ILS (increase in life span): Table III
From the text: ^b Ic tumor implantation, ip QD1-9 treatment schedule.
Central nervous system antitumor activity is given in Table III for the intracerebrally implanted L1210, P388, and ependymoblastoma tumor systems.
All three CNS tumor models (Table III) use intracerebral (IC) tumor implantation and IP treatment.

ependymoblastoma = assay: Intracerebral (IC) ependymoblastoma (EM) brain tumor test; type: in vivo, murine; settings: for ILS (increase in life span) / T - C (average weight change of test group minus control) / Cures (animals alive per six on day of termination): Table III; for ILS (increase in life span) / T - C (average weight change of test group minus control): ic ependymoblastoma; for T - C (average weight change of test group minus control): day 5
[5] = Room temperature water solubility; type: physicochemical
Method in brief: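 Water added incrementally by pipet, with shaking, to a weighed amount of compound at room temperature until dissolved; values are approximate.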

[6] = Octanol/H2O partition coefficient (log P); type: physicochemical; settings: partition coefficient measured
From the text: ^(b) Octanol/H2 O values determined by C. Hansch and M. Yamakawa

[7] = test system: IP ascites tumor systems (leukemia L1210 and P388); assay: IP ascites tumor systems (leukemia L1210 and P388); type: in vivo, murine
From the text: (§1) The criterion for minimum activity, %ILS, is defined here as follows: Intraperitoneal and intracerebral leukemia L1210 and intraperitoneal leukemia P388, 25%; intraperitoneal B16 melanoma and intracerebral ependymoblastoma, 40%. Consistent with NCI antitumor test protocols, intraperitoneal (IP) administration of the drug was employed with all five tumor systems investigated. Tumor implantation was IP in the systems designated IP leukemia L1210 and P388 as well as B16 melanoma. Intracerebral (IC) tumor implantation was utilized in the IC L1210 and ependymoblastoma tumor systems.

[8] = test system: transplanted mouse tumor test systems; assay: Transplanted mouse tumor test systems (overall statement); type: in vivo, murine
From the text: The criterion for minimum activity is defined here as follows: intraperitoneal and intracerebral L1210 leukemia, 25%; intraperitoneal and intracerebral P388 leukemia, 25%; B16 melanoma, 40%; Lewis lung carcinoma, 25%; and intracerebral ependymoblastoma, 40%.
The L1210, P388 and B16 test systems described in Table II utilize intraperitoneal (IP) tumor implantation and IP drug treatment while the Lewis lung system employs subcutaneous tumor implantation and IP treatment. All three CNS tumor models (Table III) use intracerebral (IC) tumor implantation and IP treatment.
as §1

[9] = IP L1210, ip QD1-9, 0.88 mg/kg/injection
[10] = IP L1210, ip QD1-9, 1.30 mg/kg/injection
[11] = IP L1210, ip QD1-9, 6.25 mg/kg/injection
[12] = ip QD1-5, 1.00 mg/kg/injection, expt 133 (day 99)
[13] = ip QD1-5, 1.00 mg/kg/injection, expts 136 and 144 (day 60)
[14] = ip QD1-5, 2.00 mg/kg/injection, expt 133 (day 99)
[15] = ip QD1-5, 2.00 mg/kg/injection, expts 136 and 144 (day 60)
[16] = ip QD1-5, 4.00 mg/kg/injection, expt 136 (day 60)

Which results are given for `CCOC(=O)NC1=C(N2CC2)C(=O)C(NC(=O)OCC)=C(N2CC2)C1=O` [Compound 9, 2,5-Diaziridinyl-3,6-bis (carboethoxyamino)-1,4-benzoquinone]?
activity (%ILS) (lymphoid leukemia L1210 [1]; IP L1210, Q4D schedule): 54%; optimum dose (lymphoid leukemia L1210 [1]; IP L1210, Q4D schedule): 6.25 mg/kg; optimum dose (OD) (lymphoid leukemia L1210 [1]; IP L1210, QD1-9): 2 to 3 mg/kg; therapeutic ratio (TR, highest active dose divided by lowest active dose) (lymphoid leukemia L1210 [1]; IP L1210, QD1-9): approximately 4; increase in life span (ILS) (lymphoid leukemia L1210 [1]; L1210, Q4D and QD1-9 schedules): > 25%; antitumor activity (lymphoid leukemia L1210 [1]; L1210 system, Q4D and QD1-9 schedules): very active; ILS (increase in life span) (lymphoid leukemia L1210 [1]; [9]): 32%; T - C (average weight change of test group minus control) (lymphoid leukemia L1210 [1]; [9]): -1.4 grams; ILS (increase in life span) (lymphoid leukemia L1210 [1]; [10]): 60%; T - C (average weight change of test group minus control) (lymphoid leukemia L1210 [1]; [10]): -2.3 grams; ILS (increase in life span) (lymphoid leukemia L1210 [1]; IP L1210, ip QD1-9, 2.00 mg/kg/injection): 101% and 125%; ILS (increase in life span) (lymphoid leukemia L1210 [1]; [11]): 27%; T - C (average weight change of test group minus control) (lymphoid leukemia L1210 [1]; [11]): -4.1 grams; T - C (average weight change of test group minus control) (lymphoid leukemia L1210 [1]; IP L1210, ip QD1-9, 12.50 mg/kg/injection): -5.0 grams; OD (optimum dose) (lymphoid leukemia L1210 [1]; Table IV, (IP) L1210, QD1-9): 3 mg/kg/injection and 2 mg/kg/injection and 4 mg/kg/injection; % ILS (lymphoid leukemia L1210 [1]; Table IV, (IP) L1210, QD1-9, at OD): 169% and 113% and 101% and 100%; ILS (%) IP L1210 (lymphoid leukemia L1210 [1]; Table XI, outstanding activity): 169%; ILS (lymphoid leukemia L1210 [1]; standard IP L1210 test, QD1-9): > 100%; OD (optimum dose) ([2]; IP P388): 1 to 2 mg/kg; antitumor activity ([2]; IP P388): very active; ILS (increase in life span) ([2]; Table II, IP P388, ip QD1-9, 0.78 mg/kg/injection): 111% and 99% and 112%; ILS (increase in life span) ([2]; Table II, IP P388, ip QD1-9, 1.56 mg/kg/injection): 138% and 135% and 112%; T - C (average weight change of test group minus control) ([2]; Table II, IP P388, ip QD1-9, 6.25 mg/kg/injection, day 5): -6.1 grams; OD (optimum dose) ([2]; Table IV, (IP) P388, QD1-9): 1.6 mg/kg/injection and 0.8 mg/kg/injection; % ILS ([2]; Table IV, (IP) P388, QD1-9, at OD): 138% and 135% and 112%; survivors of 6 test mice on experiment termination day ([2]; Table IV, (IP) P388, QD1-9, at OD, day 30): 1; ILS (%) P388 ([2]; Table XI, outstanding activity): 138%; survivors (number in parentheses) P388 ([2]; Table XI, per 6 test animals, day 30): 1; OD (optimum dose) (B16 melanocarcinoma; B16): 3.12 mg/kg; antitumor activity (B16 melanocarcinoma; B16 melanoma): very active; B16 melanoma activity (ILS) (B16 melanocarcinoma; OD of 3.12 mg/kg): ≤ 70%; ILS (increase in life span) (B16 melanocarcinoma; B16, ip QD1-9, 1.56 mg/kg/injection): 38% and 44% and 58%; ILS (increase in life span) (B16 melanocarcinoma; B16, ip QD1-9, 3.12 mg/kg/injection): 58% and 43% and 70%; OD (optimum dose) (B16 melanocarcinoma; Table IV, (IP) B16, QD1-9): 3 mg/kg/injection; % ILS (B16 melanocarcinoma; Table IV, (IP) B16, QD1-9, at OD): 94% and 70% and 62%; ILS (%) B16 (B16 melanocarcinoma; Table XI, outstanding activity): 70%; antitumor activity (Lewis lung carcinoma; Lewis lung): Marginal activity; ILS (increase in life span) (Lewis lung carcinoma; Table II, sc Lewis lung, ip QD5-15, 2.00 mg/kg/injection): 38% and 34%; OD (optimum dose) (lymphoid leukemia L1210 [3]; IC L1210): 3.12 mg/kg; antitumor activity (lymphoid leukemia L1210 [3]; IC L1210): substantial; ILS (lymphoid leukemia L1210 [3]; IC L1210, OD 3.12 mg/kg): 79% and 84%; ILS (increase in life span) (lymphoid leukemia L1210 [3]; ic L1210, ip QD1-9, 1.56 mg/kg/injection): 51% and 46%; ILS (increase in life span) (lymphoid leukemia L1210 [3]; ic L1210, ip QD1-9, 3.12 mg/kg/injection): 84% and 79%; ILS (increase in life span) (lymphoid leukemia L1210 [3]; ic L1210, ip QD1-9, 6.25 mg/kg/injection): 10% and 3%; OD (optimum dose) (lymphoid leukemia L1210 [3]; Table IV, (IC) L1210, QD1-9): 3 mg/kg/injection and 5 mg/kg/injection; % ILS (lymphoid leukemia L1210 [3]; Table IV, (IC) L1210, QD1-9, at OD): 84% and 79% and 63% and 58%; ILS (%) IC L1210 (lymphoid leukemia L1210 [3]; Table XI, outstanding activity): 84%; antitumor activity ([4]; IC P388): substantial; ILS (increase in life span) ([4]; ic P388, ip QD1-9, 0.39 mg/kg/injection): 7% and 2%; ILS (increase in life span) ([4]; ic P388, ip QD1-9, 0.78 mg/kg/injection): 27% and 25%; ILS (increase in life span) ([4]; ic P388, ip QD1-9, 1.56 mg/kg/injection): 37% and 51%; ILS (increase in life span) ([4]; ic P388, ip QD1-9, 3.12 mg/kg/injection): 39% and 31%; OD (optimum dose) ([4]; Table IV, (IC) P388, QD1-9): 1.5 mg/kg/injection and 3 mg/kg/injection; % ILS ([4]; Table IV, (IC) P388, QD1-9, at OD): 51% and 39%; antitumor activity (ependymoblastoma; IC ependymoblastoma (EM)): curative; also recorded: very active; ILS (increase in life span) (ependymoblastoma; ip QD1-5, 0.25 mg/kg/injection): 30%; T - C (average weight change of test group minus control) (ependymoblastoma; ip QD1-5, 0.25 mg/kg/injection): -1.5 grams; ILS (increase in life span) (ependymoblastoma; ip QD1-5, 0.50 mg/kg/injection): 62%; T - C (average weight change of test group minus control) (ependymoblastoma; ip QD1-5, 0.50 mg/kg/injection): -1.8 grams; ILS (increase in life span) (ependymoblastoma; [12]): 348%; ILS (increase in life span) (ependymoblastoma; [13]): 126% and 171%; ILS (increase in life span) (ependymoblastoma; [14]): 349%; ILS (increase in life span) (ependymoblastoma; [15]): 277% and 171%; ILS (increase in life span) (ependymoblastoma; [16]): 276%; T - C (average weight change of test group minus control) (ependymoblastoma; ip QD1-5, 8.00 mg/kg/injection): -5.0 grams; Cures (animals alive per six on day of termination) (ependymoblastoma; [12]): 3/6; Cures (animals alive per six on day of termination) (ependymoblastoma; [13]): 1/6 and 5/6; Cures (animals alive per six on day of termination) (ependymoblastoma; [14]): 4/6; Cures (animals alive per six on day of termination) (ependymoblastoma; [15]): 5/6; Cures (animals alive per six on day of termination) (ependymoblastoma; [16]): 4/6; OD (optimum dose) (ependymoblastoma; Table IV, (IC) ependymoblastoma, QD1-5): 2 mg/kg/injection and 1 mg/kg/injection; % ILS (ependymoblastoma; Table IV, (IC) ependymoblastoma, QD1-5, at OD): > 277% and > 202% and > 172% and > 171%; survivors of 6 test mice on experiment termination day (ependymoblastoma; Table IV, (IC) ependymoblastoma, QD1-5, at OD, day 60): 5 and 4 and 6; survivors (number in parentheses) EM (ependymoblastoma; Table XI, per 6 test animals, day 60): 5; TR (therapeutic ratio) (ependymoblastoma; ependymoblastoma): 4-8; optimum dose (ependymoblastoma; ependymoblastoma): 1 to 2 mg/kg; survival (ependymoblastoma; experiment 133, 2.0 mg/kg, day 99): A majority of the test animals were alive on day 99; solubility [5]: appeared to be adequate; solubility ([5]; water, approximate, read-out: aqueous solubility): ~500 µg/mL (≈ 1370 µM); log P [6]: 0.05; antitumor activity [7]: does not give multiple cures; toxicity [8]: reasonably toxic material; antitumor activity ([8]; IC and other transplanted mouse tumor systems): very substantial activity; also recorded: Antitumor activity was observed; also recorded: intracerebral (IC) as well as IP antitumor activity; TR (therapeutic ratio) ([8]; last three systems (P388, B16, Lewis lung)): 3-4
